These results are taken from ChEMBL document CHEMBL2163289, “The discovery of N-[5-(4-bromophenyl)-6-[2-[(5-bromo-2-pyrimidinyl)oxy]ethoxy]-4-pyrimidinyl]-N'-propylsulfamide (Macitentan), an orally active, potent dual endothelin receptor antagonist” (J Med Chem, 2012).

The structures appear in SMILES notation. pIC50: −log10 of the molar value. Activity calls are given as the source filed them. The calls are words filed in the database; no cut-off is given here.

Series [1] concerns Rattus norvegicus. Put plainly: Effect on heart rate in telemeterized hypertensive Dahl salt-sensitive rat at 3 mg/kg, po.
Series [2] has as its system Rattus norvegicus. Put plainly: Antihypertensive activity in telemeterized hypertensive Dahl salt-sensitive rat assessed as reduction in mean arterial blood pressure at 3 mg/kg, po measured over 6 hrs. Type of series: functional, Artery.
For series [3], the system named is Rattus norvegicus. Put plainly: Antihypertensive activity in telemeterized hypertensive Dahl salt-sensitive rat assessed as duration of mean arterial blood pressure lowering action at 100 mg/kg, po. Type of series: functional, Artery.
In series [4] the test system is Rattus norvegicus. Put plainly: Antihypertensive activity in telemeterized hypertensive Dahl salt-sensitive rat assessed as reduction in mean arterial blood pressure at 100 mg/kg, po measured over 6 hrs. Type of series: functional, Artery.
Series [5] concerns Rattus norvegicus. As to the kind of experiment: Antihypertensive activity in telemeterized hypertensive Dahl salt-sensitive rat assessed as duration of mean arterial blood pressure lowering action at 3 mg/kg, po. Type of series: functional, Artery.
Series [6] has as its system Rattus norvegicus. As to the kind of experiment: Cmax in Wistar rat assessed as N-[5-(4-Bromophenyl)-6-[2-[(5-bromo-2-pyrimidinyl)oxy]ethoxy]-4-pyrimidinyl]-sulfamide level at 10 mg/kg, po at 6 hrs. To be noted: in vivo. Details: dose 10 mg/kg, route oral. Type of series: ADME, organism-based.
A further series deals with T1, Endothelin-1 receptor (Homo sapiens, UniProt P25101).
T1 sequence (P25101 whole entry): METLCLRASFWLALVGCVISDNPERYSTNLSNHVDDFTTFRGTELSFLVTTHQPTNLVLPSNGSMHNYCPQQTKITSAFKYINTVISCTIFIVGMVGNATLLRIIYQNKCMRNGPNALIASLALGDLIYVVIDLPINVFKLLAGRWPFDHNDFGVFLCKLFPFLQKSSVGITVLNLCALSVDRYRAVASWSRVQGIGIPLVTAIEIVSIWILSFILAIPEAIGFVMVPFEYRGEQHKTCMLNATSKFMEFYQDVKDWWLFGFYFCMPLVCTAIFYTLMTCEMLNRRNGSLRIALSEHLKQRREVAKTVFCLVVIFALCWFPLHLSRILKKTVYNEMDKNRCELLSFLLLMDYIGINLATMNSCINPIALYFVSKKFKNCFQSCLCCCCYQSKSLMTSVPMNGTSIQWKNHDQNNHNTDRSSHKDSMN
As to the kind of experiment: Displacement of [I125]ET1 from recombinant ETA receptor expressed in CHO cells after 2 hrs by TopCount analysis. Type of series: cell-based.

The nature of series [7]: AUC (0 to infinity) in Wistar rat at 10 mg/kg, po. Type of series: ADME, organism-based. Details: time infinity, dose 10 mg/kg, route oral. To be noted: plasma.
Series [8] in a line: Cmax in Wistar rat at 10 mg/kg, po. The class given is ADME, organism-based. Particulars: in vivo. The arrangement: dose 10 mg/kg, route oral.
A short description of series [9]: Clearance in beagle dog at 1 mg/kg, iv. Type of series: ADME, organism-based, Canis lupus familiaris. Details: dose 1 mg/kg, route intravenous. Particulars: in vivo.
Series [10] relates to Rattus norvegicus. As to the kind of experiment: Antihypertensive activity in telemeterized hypertensive Dahl salt-sensitive rat assessed as reduction in mean arterial blood pressure at 1 mg/kg, po administered QD for 5 days. Type of series: functional, Artery.
In series [11] the test system is Rattus norvegicus. Put plainly: Toxicity in telemeterized hypertensive Dahl salt-sensitive rat assessed as tachyphylaxis at 1 mg/kg, po administered QD for 5 days. Details: dose 1 mg/kg, route oral. Particulars: in vivo, 120 h. Type of series: organism-based.
A short description of series [12]: AUC (0 to infinity) in Wistar rat at 1 mg/kg, iv. To be noted: plasma. The arrangement: time infinity, dose 1 mg/kg, route intravenous. Type of series: ADME, organism-based.
Series [13] relates to Rattus norvegicus. As to the kind of experiment: Antihypertensive activity in po dosed telemeterized hypertensive Dahl salt-sensitive rat assessed as reduction in mean arterial blood pressure. Particulars: Artery.
The species entered for series [14] is Rattus norvegicus. Put plainly: Drug metabolism in Wistar rat assessed as N-[5-(4-Bromophenyl)-6-[2-[(5-bromo-2-pyrimidinyl)oxy]ethoxy]-4-pyrimidinyl]-sulfamide formation. The class given is ADME, organism-based. Particulars: in vivo.
For a further series, the species on record is Canis familiaris. Put plainly: Drug metabolism in beagle dog assessed as N-[5-(4-Bromophenyl)-6-[2-[(5-bromo-2-pyrimidinyl)oxy]ethoxy]-4-pyrimidinyl]-sulfamide formation. The class given is ADME, organism-based, Canis lupus familiaris. Particulars: in vivo.
Series [15] has as its system Rattus norvegicus. Put plainly: Effect on heart rate in telemeterized hypertensive Dahl salt-sensitive rat at 1 to 100 mg/kg, po.
The nature of series [16]: Cmax in beagle dog at 10 mg/kg, po. The arrangement: dose 10 mg/kg, route oral. Type of series: ADME, organism-based, Canis lupus familiaris. Particulars: in vivo.
The nature of series [17]: Clearance in Wistar rat at 1 mg/kg, iv. The class given is ADME, organism-based. The arrangement: dose 1 mg/kg, route intravenous. Particulars: in vivo.
Series [18] in a line: Volume of distribution at steady state in Wistar rat at 1 mg/kg, iv. The class given is ADME, organism-based. The arrangement: dose 1 mg/kg, route intravenous. To be noted: in vivo, read-out: Vdss.
Series [19] can be described thus: Oral bioavailability in Wistar rat at 10 mg/kg. Type of series: ADME, organism-based. Particulars: in vivo.
The subject of series [20] is Rattus norvegicus. Put plainly: Antihypertensive activity in telemeterized hypertensive Dahl salt-sensitive rat assessed as reduction in mean arterial blood pressure at 1 mg/kg, po administered QD for 5 days measured 48 hrs post last-dose. Particulars: Artery.
A short description of series [21]: Half life in beagle dog at 1 mg/kg, iv. The class given is ADME, organism-based, Canis lupus familiaris. The arrangement: dose 1 mg/kg, route intravenous. Particulars: in vivo.
The species named for series [22] is Rattus norvegicus. As to the kind of experiment: Toxicity in rat assessed as inhibition of bile salt transport. Type of series: organism-based. Particulars: in vivo.
A short description of series [23]: Tmax in beagle dog at 10 mg/kg, po. The class given is ADME, organism-based, Canis lupus familiaris. Details: dose 10 mg/kg, route oral. To be noted: in vivo.
Series [24] in a line: Half life in Wistar rat at 1 mg/kg, iv. Particulars: in vivo. Details: dose 1 mg/kg, route intravenous. Type of series: ADME, organism-based.
Series [25] in a line: Oral bioavailability in beagle dog at 10 mg/kg. To be noted: in vivo. The class given is ADME, organism-based, Canis lupus familiaris.
The nature of series [26]: AUC (0 to infinity) in beagle dog at 1 mg/kg, iv. The class given is ADME, organism-based, Canis lupus familiaris. Details: dose 1 mg/kg, route intravenous, time infinity. To be noted: plasma.
Series [27] can be described thus: Volume of distribution at steady state in beagle dog at 1 mg/kg, iv. Details: dose 1 mg/kg, route intravenous. The class given is ADME, organism-based, Canis lupus familiaris. Particulars: in vivo, read-out: Vdss.
Series [28] is described as follows: AUC (0 to infinity) in beagle dog at 10 mg/kg, po. To be noted: plasma. The class given is ADME, organism-based, Canis lupus familiaris. Details: time infinity, dose 10 mg/kg, route oral.
Series [29] is described as follows: Tmax in Wistar rat at 10 mg/kg, po. The class given is ADME, organism-based. The arrangement: dose 10 mg/kg, route oral. Particulars: in vivo.

On to `COc1ccccc1Oc1c(NS(=O)(=O)c2ccc(C(C)(C)C)cc2)nc(-c2ncccn2)nc1OCCO` [BOSENTAN], for which the outcome in the series with Rattus norvegicus [1] was inactive. The “Fall in mean arterial blood pressure” value in the series with Rattus norvegicus [2] is given as 7 mmHg. The figures for the Time in the series with Rattus norvegicus [3] and in the series with Rattus norvegicus [5] were 72 h and 15 h, respectively. Moreover, the MPE in the series with Rattus norvegicus [4] turned out to be 30 mmHg.
Usually Cmax stands for the peak of the concentration-time curve. What is called pIC50 is −log10 of the IC50, conventionally taken in molar units. Take `CCCCNS(=O)(=O)Nc1ncnc(OCCOc2ncc(Br)cn2)c1-c1ccc(Br)cc1`: the “Fall in mean arterial blood pressure” value in the series on Rattus norvegicus [2] turned out to be 16 mmHg. In addition, in the series on Rattus norvegicus [6], the Cmax was 4100 ng/mL. On Endothelin-1 receptor, the pIC50 is 9.52.
On to `COc1ccc(Cl)c(Oc2c(NS(=O)(=O)NCc3ccccc3)ncnc2OCCOc2ncc(Br)cn2)c1`, for which the outcome with Rattus norvegicus [1] was inactive. For the same compound, the “Fall in mean arterial blood pressure” value in the series with Rattus norvegicus [2] was 24 mmHg. In addition, the pIC50 on Endothelin-1 receptor was 8.85.
Turning to `CCCNS(=O)(=O)Nc1ncnc(OCCOc2ncc(Br)cn2)c1Oc1cccc(OC)c1`, the “Fall in mean arterial blood pressure” value with Rattus norvegicus [2] is recorded as 15 mmHg. Besides, on Endothelin-1 receptor, the negative-log IC50 (pIC50) was 8.72.
On to `COc1cccc(Oc2c(NS(=O)(=O)NCc3ccccc3)ncnc2OCCOc2ncc(Br)cn2)c1`, for which the outcome with Rattus norvegicus [1] was inactive. The “Fall in mean arterial blood pressure” value with Rattus norvegicus [2] was 10 mmHg. Moreover, the pIC50 at Endothelin-1 receptor is 9.00.
In the same order, the values of `O=S(=O)(NCc1ccccc1)Nc1ncnc(OCCOc2ncc(Br)cn2)c1-c1ccc(Br)cc1` are “inactive”, 14 mmHg and 8.80.
In the same order, the values of `O=S(=O)(NCc1ccccc1)Nc1ncnc(OCCOc2ncc(Br)cn2)c1-c1ccc(Cl)cc1` are “inactive”, 18 mmHg and 8.85.
Consider `CCCNS(=O)(=O)Nc1ncnc(OCCOc2ncc(Br)cn2)c1Oc1cc(OC)ccc1Cl`, for which the “Fall in mean arterial blood pressure” value with Rattus norvegicus [2] is recorded as 21 mmHg. Besides, the pIC50 on Endothelin-1 receptor is 9.40.
A word on the AUC(0-inf): it is the area under the concentration-time curve extrapolated to infinity. Read a high AUC(0-inf) as high exposure. As usually defined, the clearance is the rate of elimination divided by the concentration. The term bioavailability denotes dose-corrected exposure relative to a reference, in per cent. One may read the half-life as how long it takes for the measured level to halve. Low readings indicate fast loss, high ones slow loss. One may read the Tmax as the time at which the peak concentration occurs. Take `CCCNS(=O)(=O)Nc1ncnc(OCCOc2ncc(Br)cn2)c1-c1ccc(Br)cc1`: the AUC(0-inf) in series [7] amounted to 18500 ng·h/mL; in series [12], 2680 ng·h/mL; in series [26] it was 3170 ng·h/mL; in [28], 27500 ng·h/mL. Besides, the Cmax in series [8] turned out to be 1670 ng/mL; in [16], 4590 ng/mL. The clearance was found to be 5.4 mL/min/kg in [9] and 6.7 mL/min/kg in series [17]. The MPE in the series with Rattus norvegicus [10] was 20 mmHg. Also, the Activity entry in the series on Rattus norvegicus [11] is “Non-toxic”; with Rattus norvegicus [13], “Dose-dependent effect”; in the series listed under Rattus norvegicus [22] it was “Non-toxic”. Further, the Drug metabolism result in the series filed under Rattus norvegicus [14] and in the series listed under Canis familiaris was “Active” throughout. For the same compound, the “Fall in mean arterial blood pressure” value in the series with Rattus norvegicus [2] is listed as 25 mmHg. Besides, the outcome in the series on Rattus norvegicus [15] was inactive. The Vd in series [18] is 1.8 L/kg; in series [27], 0.9 L/kg. In addition, the figures for the bioavailability in [19] and in [25] were 69% and 87%, respectively. Further, the outcome in the series with Rattus norvegicus [20] was Active. Also, the results for the half-life in series [21] and in [24] were 4.1 h and 5.1 h, respectively. The time to peak (Tmax) in [23] stood at 2 h; in series [29], 6 h. The pIC50 on Endothelin-1 receptor was 9.30. Moreover, the Time in the series on Rattus norvegicus [5] was 60 h.
`CNS(=O)(=O)Nc1ncnc(OCCOc2ncc(Br)cn2)c1-c1ccc(Br)cc1`: the “Fall in mean arterial blood pressure” value with Rattus norvegicus [2] was found to be 21 mmHg. On Endothelin-1 receptor, the pIC50 is 8.77.
